The record followed here is patent publication US20130261108A1, “COMPOSITIONS AND METHODS FOR MODULATING FARNESOID X RECEPTORS” (IRM LLC, priority 2010, published 2013).

Structures are written as SMILES.

The assay deals with T1, human Farnesoid X Receptor (FXR) ligand binding domain (Homo sapiens, UniProt Q96RI1).
T1 construct: purchased Invitrogen
T1 sequence (Q96RI1 193-472 isoform Q96RI1-2): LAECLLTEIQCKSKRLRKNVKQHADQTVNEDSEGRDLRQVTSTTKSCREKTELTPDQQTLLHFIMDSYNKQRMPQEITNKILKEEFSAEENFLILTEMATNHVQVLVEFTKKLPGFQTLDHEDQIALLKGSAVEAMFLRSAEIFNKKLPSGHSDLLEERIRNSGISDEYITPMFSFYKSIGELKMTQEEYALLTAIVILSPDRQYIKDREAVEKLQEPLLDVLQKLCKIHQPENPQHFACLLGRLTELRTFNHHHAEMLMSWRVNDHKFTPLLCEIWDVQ
Briefly: Human GST-FXR LBD co-activator interaction assay (FXR HTRF assay). In kind it is biochemical. As to conditions: GST-FXR LBD with biotin-labeled SRC-1 peptide, FRET/HTRF, 2.5 hours at room temperature; response relative to GW4064; read-out: FXR coactivator interaction assay (HTRF) (EC50). The text has this: Human GST-FXR LBD Co-Activator Interaction Assay.
The FXR HTRF assay is a biochemical assay measuring the interaction between FXR and a coactivator protein (SRC1). The ligand-induced interaction with a coactivator protein is a critical step in transcriptional activation by FXR. Thus, this is an assay designed to measure FXR agonist activity of compounds.
The ligand-dependent interaction between GST-FXR LBD and a peptide derived from Steroid Receptor Coactivator-1 (SRC-1) was monitored by Fluorescence Resonance Energy Transfer (FRET). […] Test compounds (in DMSO solution) and detection reagents (anti-GST-Cryptate labeled antibody and Streptavidin-XL665 conjugate; CisBio) were added in assay buffer containing 50 mM KF. Plates are incubated at room temperature in the dark for 2.5 hours before reading on an Envision (PerkinElmer) at 665 nm and 590 nm.
A negative control (without Streptavidin-XL665) was run with each assay and represented the background fluorescence. A reference FXR agonist, GW4064, was included in each experiment as positive control. The efficacy of each test compound was compared to that of GW4064. At each concentration, the relative activity of the test compound was expressed as Response %=(Rsample−RDMSO)/(Rpositive−RDMSO), where Rsample is the HTRF response (expressed in Delta F %) for the test compound, Rpositive is the maximal response for GW4064 at saturating concentrations, and RDMSO is the response for DMSO control. The EC50 values were calculated using GraphPad Prism (GraphPad Software) using non-linear regression curve fit (log(agonist) vs. response−variable slope (four parameters)).
(In general: In TR-FRET formats the signal depends on donor and acceptor labels being close together.)
Broadly, the EC50 is the concentration at which the effect is half-maximal. On to `O=C(O)c1ccc2nc(N3CCC(OCc4c(-c5c(F)cccc5F)noc4C4CC4)CC3)sc2c1` [Example 2-14, 2-(4-{[5-cyclopropyl-3-(2,6-difluorophenyl)-1,2-oxazol-4-yl]methoxy}piperidin-1-yl)-1,3-benzothiazole-6-carboxylic acid], for which the half-maximal effective concentration (EC50) came to 31 nM.
For the compound `O=C(O)c1ccc2nc(N3CCC(OCc4c(C5CCCCC5)noc4C4CC4)CC3)sc2c1` [Example 2-15, 2-{4-[(3-cyclohexyl-5-cyclopropyl-1,2-oxazol-4-yl)methoxy]piperidin-1-yl}-1,3-benzothiazole-6-carboxylic acid], the 50% effective concentration (EC50) was 246 nM.
The same measure for `O=C(O)c1ccc2nc(N3CCC(OCc4c(C5CCCC5)noc4C4CC4)CC3)sc2c1` [Example 2-16, 2-{4-[(3-cyclopentyl-5-cyclopropyl-1,2-oxazol-4-yl)methoxy]piperidin-1-yl}-1,3-benzothiazole-6-carboxylic acid]: 263 nM.
With `O=C(O)c1ccc2nc(N3CCC(OCc4c(C5CC6CCC5C6)noc4C4CC4)CC3)sc2c1` (stereo not shown) [Example 2-17, 2-{4-[(3-{bicyclo[2.2.1]heptan-2-yl}-5-cyclopropyl-1,2-oxazol-4-yl)methoxy]piperidin-1-yl}-1,3-benzothiazole-6-carboxylic acid], the EC50 worked out at 423 nM.
The same measure for `CCOC(=O)c1ccc2nc(N3CCCC(OCc4c(-c5ccccc5OC(F)(F)F)noc4C4CC4)CC3)sc2c1` (stereo not shown) [Example 3-1A, ethyl 2-[4-({5-cyclopropyl-3-[2-(trifluoromethoxy)phenyl]-1,2-oxazol-4-yl}methoxy)azepan-1-yl]-1,3-benzothiazole-6-carboxylate]: 248 nM; for `O=C(O)c1ccc2nc(N3CCCC(OCc4c(-c5ccccc5OC(F)(F)F)noc4C4CC4)CC3)sc2c1` (stereo not shown) [Example 3-1B, 2-[4-({5-cyclopropyl-3-[2-(trifluoromethoxy)phenyl]-1,2-oxazol-4-yl}methoxy)azepan-1-yl]-1,3-benzothiazole-6-carboxylic acid]: 7 nM.
With `CCOC(=O)c1ccc2nc(N3CCCC(OCc4c(-c5ccccc5C(F)(F)F)noc4C4CC4)CC3)sc2c1` (stereo not shown) [Example 3-2A, ethyl 2-[4-({5-cyclopropyl-3-[2-(trifluoromethyl)phenyl]-1,2-oxazol-4-yl}methoxy)azepan-1-yl]-1,3-benzothiazole-6-carboxylate], the EC50 was 416 nM.
In the case of `O=C(O)c1ccc2nc(N3CCCC(OCc4c(-c5ccccc5C(F)(F)F)noc4C4CC4)CC3)sc2c1` (stereo not shown) [Example 3-2B, 2-[4-({5-cyclopropyl-3-[2-(trifluoromethyl)phenyl]-1,2-oxazol-4-yl}methoxy)azepan-1-yl]-1,3-benzothiazole-6-carboxylic acid], the half-maximal effective concentration (EC50) stood at 8 nM.
As to `CCOC(=O)c1ccc2nc(N3CCC(OCc4c(-c5c(Cl)cccc5Cl)noc4C(C)C)CC3)sc2c1` [Example 4A, Ethyl 2-(4-((3-(2,6-dichlorophenyl)-5-isopropylisoxazol-4-yl)methoxy)piperidin-1-yl)benzo[d]thiazole-6-carboxylate], the EC50 is 960 nM.
For the compound `CC(C)c1onc(-c2c(Cl)cccc2Cl)c1COC1CCN(c2nc3ccc(C(=O)O)cc3s2)CC1` [Example 4B, 2-(4-((3-(2,6-Dichlorophenyl)-5-isopropylisoxazol-4-yl)methoxy)piperidin-1-yl)benzo[d]thiazole-6-carboxylic acid], the 50% effective concentration (EC50) came to 7 nM.
The result for `O=C(O)c1ccc2nc(N3CCC(OCc4c(C5CCCCC5C(F)(F)F)noc4C4CC4)CC3)sc2c1` (stereo not shown) [Example 5, 2-[4-({5-cyclopropyl-3-[2-(trifluoromethyl)cyclohexyl]-1,2-oxazol-4-yl}methoxy)piperidin-1-yl]-1,3-benzothiazole-6-carboxylic acid] reads 44 nM; that for `N#Cc1ccc2nc(N3CCC(OCc4c(-c5c(Cl)cccc5Cl)noc4C4CC4)CC3)sc2c1` [Example 6-1, 2-(4-((5-cyclopropyl-3-(2,6-dichlorophenyl)isoxazol-4-yl)methoxy)piperidin-1-yl)benzo[d]thiazole-6-carbonitrile], 132 nM.
With `NC(=O)c1ccc2nc(N3CCC(OCc4c(-c5c(Cl)cccc5Cl)noc4C4CC4)CC3)sc2c1` [Example 6-2, 2-(4-((5-cyclopropyl-3-(2,6-dichlorophenyl)isoxazol-4-yl)methoxy)piperidin-1-yl)benzo[d]thiazole-6-carboxamide], the EC50 is 19 nM.
With `Clc1cccc(Cl)c1-c1noc(C2CC2)c1COC1CCN(c2nc3ccc(-c4nn[nH]n4)cc3s2)CC1` [Example 6-3, 4-(((1-(6-(2H-tetrazol-5-yl)benzo[d]thiazol-2-yl)piperidin-4-yl)oxy)methyl)-5-cyclopropyl-3-(2,6-dichlorophenyl)isoxazole], the concentration giving a half-maximal response (EC50) was determined as 15 nM.
Take `N#Cc1ccc2nc(N3CCC(OCc4c(-c5ccccc5OC(F)(F)F)noc4C4CC4)CC3)sc2c1` [Example 7-1, 2-[4-({5-cyclopropyl-3-[2-(trifluoromethoxy)phenyl]-1,2-oxazol-4-yl}methoxy)piperidin-1-yl]-1,3-benzothiazole-6-carbonitrile]: the concentration for a half-maximal effect (EC50) came to 2200 nM.
The result for `NC(=O)c1ccc2nc(N3CCC(OCc4c(-c5ccccc5OC(F)(F)F)noc4C4CC4)CC3)sc2c1` [Example 7-2, 2-[4-({5-cyclopropyl-3-[2-(trifluoromethoxy)phenyl]-1,2-oxazol-4-yl}methoxy)piperidin-1-yl]-1,3-benzothiazole-6-carboxamide] reads 164 nM.
For the compound `FC(F)(F)Oc1ccccc1-c1noc(C2CC2)c1COC1CCN(c2nc3ccc(-c4nn[nH]n4)cc3s2)CC1` [Example 7-3, 2-[4-({5-cyclopropyl-3-[2-(trifluoromethoxy)phenyl]-1,2-oxazol-4-yl}methoxy)piperidin-1-yl]-6-(2H-1,2,3,4-tetrazol-5-yl)-1,3-benzothiazole], the EC50 is 433 nM.
`NC(=O)c1cc(F)c2nc(N3CCC(OCc4c(-c5ccccc5OC(F)(F)F)noc4C4CC4)CC3)sc2c1` [Example 7-4, 2-[4-({5-cyclopropyl-3-[2-(trifluoromethoxy)phenyl]-1,2-oxazol-4-yl}methoxy)piperidin-1-yl]-4-fluoro-1,3-benzothiazole-6-carboxamide]: the concentration for a half-maximal effect (EC50) came out at 272 nM.
Regarding `N#Cc1ccc2nc(N3CCC(OCc4c(-c5c(F)cccc5Cl)noc4C4CC4)CC3)sc2c1` [Example 7-5, 2-(4-{[3-(2-chloro-6-fluorophenyl)-5-cyclopropyl-1,2-oxazol-4-yl]methoxy}piperidin-1-yl)-1,3-benzothiazole-6-carbonitrile], the EC50 is 836 nM.
Turning to `Fc1cccc(Cl)c1-c1noc(C2CC2)c1COC1CCN(c2nc3ccc(-c4nn[nH]n4)cc3s2)CC1` [Example 7-6, 2-(4-{[3-(2-chloro-6-fluorophenyl)-5-cyclopropyl-1,2-oxazol-4-yl]methoxy}piperidin-1-yl)-6-(2H-1,2,3,4-tetrazol-5-yl)-1,3-benzothiazole], the EC50 was 154 nM.
The result for `COC(=O)CNC(=O)c1ccc2nc(N3CCC(OCc4c(-c5ccccc5OC(F)(F)F)noc4C4CC4)CC3)sc2c1` [Example 8-1A, Methyl 2-(2-(4-((5-cyclopropyl-3-(2-(trifluoromethoxy)phenyl)isoxazol-4-yl)methoxy)piperidin-1-yl)benzo[d]thiazole-6-carboxamido)acetate] reads 456 nM; that for `O=C(O)CNC(=O)c1ccc2nc(N3CCC(OCc4c(-c5ccccc5OC(F)(F)F)noc4C4CC4)CC3)sc2c1` [Example 8-1B, 2-(2-(4-((5-cyclopropyl-3-(2-(trifluoromethoxy)phenyl)isoxazol-4-yl)methoxy)piperidin-1-yl)benzo[d]thiazole-6-carboxamido)acetic acid], 20 nM.
The same measure for `O=C(NCCS(=O)(=O)O)c1ccc2nc(N3CCC(OCc4c(-c5ccccc5OC(F)(F)F)noc4C4CC4)CC3)sc2c1` [Example 9, 2-(2-(4-((5-cyclopropyl-3-(2-(trifluoromethoxy)phenyl)isoxazol-4-yl)methoxy)piperidin-1-yl)benzo[d]thiazole-6-carboxamido)ethanesulfonic acid]: 87 nM; for `O=C(O)c1ccc2nc(N3CCC(OCc4c(COc5c(Cl)cccc5Cl)noc4C4CC4)CC3)sc2c1` [Example 10-1, 2-(4-{[5-cyclopropyl-3-(2,6-dichlorophenoxymethyl)-1,2-oxazol-4-yl]methoxy}piperidin-1-yl)-1,3-benzothiazole-6-carboxylic acid]: 89 nM.
In the case of `O=C(O)c1ccc2nc(N3CCC(OCc4c(CC5CCCCC5)noc4C4CC4)CC3)sc2c1` [Example 10-2, 2-(4-{[3-(cyclohexylmethyl)-5-cyclopropyl-1,2-oxazol-4-yl]methoxy}piperidin-1-yl)-1,3-benzothiazole-6-carboxylic acid], the EC50 came to 357 nM.
